According to patent publication US20060165717A1 (priority 2005, published 2006):

Tested on: Balb/c mice
Test: Immunization of mice with detoxified TAT vaccine compositions; TAT-specific IgG by ELISA
Assay type: in vivo
Details: 2 subcutaneous injections D0, D21, 1 μg TAT antigen
Method: Vaccine compositions comprising, as antigen, a detoxified TAT III B protein are prepared. The TAT protein was detoxified by means of an alkylation reaction in an alkaline medium using iodoacetamide under the following conditions: number of micromoles of iodoacetamide=200×number of micromoles of TAT+number of micromoles of DTT. This detoxified protein and the method for preparing it are described in detail in application WO 99/33346, where it is identified under the term “carboxymethylated TAT”.
Immunizing doses having the following composition are the obtained:
Adult Balb/c mice and 1-week-old “newborn” Balb/c mice are provided and are divided up into groups of 6 to 8 (groups of young mice) or of 5 to 6 (groups of adult mice). Experiments are carried out with 2 subcutaneous injections of the same vaccine formulation at D0 and at D21. Blood samples are taken after the booster injection. The TAT-specific immunoglobulins are assayed by the ELISA technique. A total of 10 to 40 mice per formulation was tested in several independent experiments: for the DC-Chol: 27 adults, 38 newborns; for the aluminum oxyhydroxide: 18 adults, 22 newborns; for the emulsion: 10 adults and 16 newborns; and in saline solution: 10 adults and 15 newborns. […]

## 3β-[N-(N′,N′-dimethyl-aminoethane)carbamoyl]cholesterol [DCchol]
Adult Balb/c mice
  adjuvant effect on TAT-specific total IgG response (FIG. 1), in words: capable of increasing the immune response
Newborn (1-week-old) Balb/c mice
  adjuvant effect on TAT-specific total IgG response (FIG. 1), in words: capable of increasing the immune response
